Laboratory results from patent publication US11602546B2, “Combination inhibiting MEIS proteins” (YEDÍTEPE ÜNÍVERSÍTESÍ, priority 2016, dated 2023).

Columns and labels:
[1] = tested on: p21-Luc MEIS reporter (Meis1); experiment: in vitro p21 luciferase reporter assay in COS cells; assay type: cell-based; details: COS cells, 0.1, 1 and 10 μM, 48 hours
Description: 2—Determining Meis1 Inhibitors by In Vitro Luciferase Reporter Assay
MEIS inhibitors were tested by conducting the luciferase reporter assay. It was observed that MEIS protein activated the luciferase reporters containing increasing doses of p21 promoters. pGL2 vectors comprising p21 gene promoter, which is activated by Meis1, were used in the luciferase assays. Therefore, 0.8 μg p21-pGL2, 400 ng Meis1 expression vector pCMVSPORT6-Meis1 (Open BioSystems) and 0.2 μg p CMV-LacZ (internal control) vector were transfected together to the COS cells. 4 hours later, the cells were treated with prototype MEIS inhibitors (at 0.1, 1 and 10 μM concentrations). 6-well plates and lipofectamine were used for transfection. 48 hours later, the cells were lysed, samples were collected and luciferase activity was determined. Reporter system of Promega (Promega Dual-Glo® Luciferase Assay System) was used for this. Luciferase measurements were normalized according to β-gal measurements (measurements were made at 420 nm). Thermo Lab system Lumino scan Ascent device was used for the luciferase measurements. As a result of these experimental studies, the in silico study, which targeted MEIS homeodomain and was conducted in comparison to the other TALE homeodomain, enabled to determine MEIS-specific hits (Experimental Results (ER): ER-A).

[2] = tested on: p21, Hif-1alpha (Hif-1α), Hif-2alpha (Hif-2α) genes in the Meis1 pathway; experiment: real-time RT-PCR of Meis1 pathway genes in HSCs; assay type: cell-based; details: HSCs, 0.1, 1 and 10 μM, 3 days, vs DMSO
Description: 3—Testing MEIS Inhibitors by Real-Time RT-PCR
HSCs were prepared for each inhibitor (3 replicates in 6 wells) and cell series containing DMSO were used as control group. For each potential small molecule, assays were conducted at concentrations of 0.1, 1 and 10 μM; and the cells were trypsinized and collected after 3 days and were stored in trizol until RNA isolation was carried out. RNA isolation was performed by using Qiagen in RNeasy mini kit and protocol. cDNA was synthesized from 2 μg RNA by using Invitrogen in Superscript II RT system. Assays were conducted in BioRad CFX 96 Real Time PCR device by using SyberGreen (AppliedBiosystems). GAPDH was used as the control gene and was used for normalizing gene expression by ddCT method. Levels of the p21, Hif-1alpha (Hif-1α), Hif-2alpha (Hif-2α) gene expressions, which are known to be activated by Meis1, were determined and were controlled by DMSO control group (FIG. 3) (ER: B).

[3] = tested on: Lin− cells obtained from the bone marrow / HSCs; experiment: ex vivo mouse HSC proliferation (Lin− bone marrow cells, flow cytometry); assay type: cell-based; details: dose dependent
Description: 4—Determining the effect of MEIS inhibitor on ex vivo HSC proliferation
Bone marrow isolation from mouse and HSC purification were performed. For this, following euthanasia of 8-12 week old mice with isoflurane, bone marrow cells were obtained from femur and tibia bones. Briefly, Lin−, Sca1+, c-Kit+, CD34low cells (long term HSCs) were obtained by being stained with cell line cocktail with biotin (anti-CD3, anti-CDS, anti-B220, anti-Mac-1, anti-Gr1, anti-Ter119; Stem Cell Technologies), and that was followed by streptavidin-PE/Cy5.5, anti-Sca-1-FITC, anti-KIT-APC, and anti-CD34-PE staining. HSC medium known as SCF medium was used in the culture of the isolated bone marrow cells. […]
HSC frequency and number: The Lin− cells obtained from the bone marrow were treated in the cell culture with MEIS inhibitors or DMSO for 10 days, and subsequently the number of hematopoietic cells (FIG. 4) and the percentage of HSCs (FIGS. 5 and 6) were determined. In order to determine the number of HSCs, the concerned surface antigens (Lin−, Sca1+, c-Kit+, CD34−) were stained with fluorochrome conjugated antibody as in the previous studies and then analyzed with flow cytometry (ER: C).

[4] = tested on: human HSCs from bone marrow or umbilical cord blood; experiment: human HSC expansion ex vivo; assay type: cell-based; details: human hematopoietic cell culture, in comparison to DMSO control group
Description: Human HSC Expansion: The cells obtained from bone marrow or umbilical cord blood were separated by Percoll and mononuclear cells were obtained. They were transferred to the tubes containing HSC medium. HSC medium known as SCF medium was used in the culture of the isolated bone marrow and umbilical cord blood HSCs. […] Following HSC purification, HSCs were seeded into a 96-well plate (Corning, 3799) at 200-300 HSCs per well; and upon adding maximum 200 μl of MEIS inhibitors mixed in SCF medium into each cell, they were incubated in 5% CO2 and normal O2 level at 37° C. for 7-10 days. Then, the number and percentage (frequency) of the HSCs and of the other hematopoietic progenitor cells were determined. The results were compared with the control group treated with DMSO (ER: E).

[5] = tested on: HSCs in mouse bone marrow and blood; experiment: in vivo proliferation of HSCs with MEIS inhibitors; details: 0.5 mg/kg to 10 mg/kg, 10 days after administration
Description: 5—In Vivo Proliferation of HSCs with MEIS Inhibitors
As an alternative to ex vivo proliferation of HSCs by using small molecules, it was shown that application of MEIS inhibitors directly for in vivo HSC proliferation is also possible. The injected MEIS inhibitors were administered intraperitoneally in the range of 0.5 mg/kg to 10 mg/kg. In order to ensure effective incubation, the inhibitors were administered to the mice in 3 different doses; and 10 days after administration, the amount of the HSCs obtained from the bone marrow of the mice was determined (FIG. 9) (ER: F).

[6] = tested on: L929 murine fibroblastic cell line; experiment: cytotoxic analyses, WST1, L929 cell line; assay type: cell-based; details: L929 cells, 0, 1, 1 and 10 μM doses, 4 days
Description: 6—Cytotoxic Analyses of MEIS Inhibitors
L929 murine fibroblastic cell line was used for cytotoxic analyses of the MEIS inhibitors. The cells were seeded into a 96-well plate (Corning, 3799) at 2000 cells per well. The next day after seeding, the cells were treated by different doses by means of gradient concentration method using final concentrations of 0.1 μM, 1 μM, 10 μM with Meis1 inhibitor 1 (MEISi-1) and Meis1 inhibitor 2 (MEISi-2) mixed into each well in maximum 200 μl DMEM medium, and they were incubated in 5% CO2 and normal O2 level at 37° C. 4 days after the incubation, 10 μl WST1 cell proliferation solution (Boster, AR1159) was added, and after incubation of 4 hours, absorbance measurement was carried out at 450 nm by Thermo Lab system Multiskan Spektrum (ER-G).

[7] = dose-dependent in vitro experiments (effective dose); assay type: cell-based
Description: The effective dose was determined to be 1 μM by means of the dose-dependent in vitro experiments.

**Q.** Which results are given for Cc1cccc(NC(=O)c2ccc(OCC(=O)NCc3ccccc3)cc2)c1C [MEISi-1, 4-[2-(benzylamino)-2-oxoethoxy]-N-(2,3-dimethylphenyl) benzamide]?
**A.** inhibition of p21-Luc MEIS reporter (luciferase activity) [1]: inhibit p21-Luc MEIS reporter in a dose-dependent manner; expression of Hif-1alpha (Hif-1α) gene [2]: reduce expression; expression of Hif-2alpha (Hif-2α) gene [2]: reduce expression; expression of p21 gene [2]: reduce expression; increase in the number of HSCs [3]: up to 10 times; ALDHBr HSC number increase [4]: 2 times; CD34+ HSC number increase [4]: 2 times; CD34+CD133 HSC number increase [4]: 2 times; CD133+ HSC number increase [4]: 2 times; HSC number in mouse bone marrow (LSKCD34low cells) [5]: successfully increased HSC number; HSC number in the blood (LSKCD150+CD48− cells) [5]: successfully increased HSC number; cytotoxicity [6]: not cytotoxic; effective dose [7]: 1 µM

**Q.** With O=C1C=Cc2ccccc2/C1=C/NNC(=O)c1ccc(O)cc1 [MEISi-2, 4-hydroxy-N′-[(Z)-(2-oxonaphthalen-1-ylidene)methyl] benzohydrazide] as the molecule, how does the “inhibition of p21-Luc MEIS reporter (luciferase activity)” value [1] read?
**A.** Its value is “inhibit p21-Luc MEIS reporter in a dose-dependent manner”.

**Q.** What about the “expression of Hif-1alpha (Hif-1α) gene” value [2] of the same molecule?
**A.** Its value is “reduce expression”.

**Q.** What about the “expression of Hif-2alpha (Hif-2α) gene” value [2] of the same molecule?
**A.** The value was “reduce expression”.

**Q.** What about the “expression of p21 gene” value [2] of the same molecule?
**A.** Its value is “reduce expression”.

**Q.** And the “increase in the number of HSCs” value [3]?
**A.** The value was “up to 3 times”.

**Q.** What about the “ALDHBr HSC number increase” value [4] of the same molecule?
**A.** Its value is 2 times.

**Q.** And the “CD34+ HSC number increase” value [4]?
**A.** Its value is 2 times.

**Q.** And the “CD34+CD133 HSC number increase” value [4]?
**A.** Its value is 2 times.

**Q.** And the “CD133+ HSC number increase” value [4]?
**A.** The value was 2 times.

**Q.** And the “HSC number in mouse bone marrow (LSKCD34low cells)” value [5]?
**A.** The value was “successfully increased HSC number”.

**Q.** What about the “HSC number in the blood (LSKCD150+CD48− cells)” value [5] of the same molecule?
**A.** The value was “successfully increased HSC number”.

**Q.** What about the cytotoxicity [6] of the same molecule?
**A.** The cytotoxicity was “not cytotoxic”.

**Q.** And the effective dose [7]?
**A.** Its effective dose is 1 µM.
